Structures are written as SMILES. Like-named read-outs stand apart in the source and are kept apart here.

Assay [1] concerns the target T1, PDE4B: The catalytic domain of human PDE4B from S152-S528 (Homo sapiens, UniProt Q07343).
T1 construct: His6 (N); thrombin cleavage site (N); made in house; host or cells: E. coli
Description: PDE4 IC50 determination by Scintillation Proximity Assay, PDE4B. The assay is classed as biochemical. The procedure, abridged:
(§1)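 Radiometric SPA: PDE4B (80 ng/ml) or PDE4D (4 ng/ml) hydrolysed [^3H]cAMP over 30 min at 30°, and the bead-bound [^3H]AMP was scintillation-counted.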
On the technique in general: In a scintillation proximity assay essentially only radioactivity close to the scintillant gives light.

The target in a further assay is T2, PDE4D (Homo sapiens, UniProt Q08499).
T2 construct: PDE4D: The catalytic domain of human PDE4B from S3 16-V692; His6 (N); thrombin cleavage site (N); made in house; host or cells: E. coli
T2 sequence (Q08499 380-756): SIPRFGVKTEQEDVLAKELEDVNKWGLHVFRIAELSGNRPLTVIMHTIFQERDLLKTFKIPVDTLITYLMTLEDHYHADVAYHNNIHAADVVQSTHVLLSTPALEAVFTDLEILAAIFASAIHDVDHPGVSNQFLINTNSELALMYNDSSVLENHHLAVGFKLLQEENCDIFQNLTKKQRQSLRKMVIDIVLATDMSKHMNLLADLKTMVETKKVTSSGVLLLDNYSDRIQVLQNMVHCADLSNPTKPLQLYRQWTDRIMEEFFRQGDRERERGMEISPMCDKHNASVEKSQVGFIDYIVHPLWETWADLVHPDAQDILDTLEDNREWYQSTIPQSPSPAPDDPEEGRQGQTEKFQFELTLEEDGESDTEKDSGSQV
Put plainly: PDE4 IC50 determination by Scintillation Proximity Assay, PDE4D. It counts as biochemical. The procedure, abridged:
as §1

Where [2] appears, read: Table 1B, Formula I compounds, read-out: IC50 PDE4B.
[3] abbreviates: Table 1B, Formula I compounds, read-out: IC50 PDE4D.
The mark [4] stands for this setting: Table 3A, Formula III compounds, read-out: IC50 PDE4B.
Where [5] appears, read: Table 3A, Formula III compounds, read-out: IC50 PDE4D.
Setting [6] is: first part of Table 2B (2-1 to 2-22), read-out: IC 50 vs. indicated assay PDE4B.
[7] abbreviates: first part of Table 2B (2-1 to 2-22), read-out: IC 50 vs. indicated assay PDE4D.
The mark [8] stands for this setting: second part of Table 2B (2-23 to 2-103), column 3, column is PDE4B in first part, read-out: IC 50 vs. indicated assay h TNFα.
[9] abbreviates: second part of Table 2B (2-23 to 2-103), column 5, column is PDE4D in first part, read-out: IC 50 vs. indicated assay h TNFα.

T1 sequence (Q07343 with tags, fused parts or gaps): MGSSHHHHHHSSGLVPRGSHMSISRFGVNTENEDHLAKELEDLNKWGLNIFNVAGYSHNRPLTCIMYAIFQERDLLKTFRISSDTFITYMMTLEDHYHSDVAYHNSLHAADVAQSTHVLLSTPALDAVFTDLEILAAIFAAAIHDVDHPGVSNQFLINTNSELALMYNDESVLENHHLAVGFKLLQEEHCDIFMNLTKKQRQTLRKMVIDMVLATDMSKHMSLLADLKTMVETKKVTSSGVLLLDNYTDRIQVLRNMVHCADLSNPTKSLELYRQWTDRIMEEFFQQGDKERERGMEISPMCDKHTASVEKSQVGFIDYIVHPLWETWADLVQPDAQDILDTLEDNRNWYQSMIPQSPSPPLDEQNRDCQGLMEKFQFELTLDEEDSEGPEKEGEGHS

Consider `Cc1ccc(C(=O)c2sc(NCCN3CCCCC3)c(C#N)c2N)c(C)c1` [Compound 1-38, 4-Amino-5-(2,4-dimethyl-benzoyl)-2-(2-piperidin-1-yl-ethylamino)-thiophene-3-carbonitrile], for which the IC50 (in assay [1] (setting [2]); at PDE4D (setting [3])) was above 10 µM in each case.

For `O=S(=O)(Nc1cccc2cccnc12)c1ccc(-c2cc(C(F)(F)F)on2)s1` [Compound 3-28, 5-(5-Trifluoromethyl-isoxazol-3-yl)-thiophene-2-sulfonic acid quinolin-8-ylamide], the IC50 (in assay [1] (setting [4]); on PDE4D (setting [5])) was above 10 µM throughout.

Consider `COC(=O)c1ccccc1Nc1sc(C(=O)c2ccccn2)c(N)c1C#N` [Compound 1-148, 2-[4-Amino-3-cyano-5-(pyridine-2-carbonyl)-thiophen-2-ylamino]-benzoic acid methyl ester], for which the IC50 (in assay [1] (setting [2]); on PDE4D (setting [3])) was below 10 µM throughout.

Consider `Cc1ccc2cccnc2c1NS(=O)(=O)c1ccc(-c2cc(C(F)(F)F)n(C)n2)s1` [Compound 3-22, 5-(1-Methyl-5-trifluoromethyl-1H-pyrazol-3-yl)-thiophene-2-sulfonic acid (7-methyl-quinolin-8-yl)-amide], for which the IC50 (in assay [1] (setting [4]); at PDE4D (setting [5])) was above 10 µM in each case.

Regarding `O=S(=O)(Nc1cccc2cccnc12)c1cc(S(=O)(=O)c2ccccc2)cs1` [Compound 3-37, 4-Benzenesulfonyl-thiophene-2-sulfonic acid quinolin-8-ylamide], the IC50 (in assay [1] (setting [4]); on PDE4D (setting [5])) was above 10 µM throughout.

On to `Cc1sc(-c2ccccc2)cc1C(=O)c1sc(NC2CCCC2)nc1N` [Compound 2-20, (4-Amino-2-cyclopentylamino-thiazol-5-yl)-(2-methyl-5-phenyl-thiophen-3-yl)-methanone], for which the IC50 (in assay [1] (setting [6]); on PDE4D (setting [7])) was below 10 µM each time.

As to `COC(=O)C(CC(C)C)Nc1sc(C(=O)c2cnn(-c3ccccc3)c2C)c(N)c1C#N` (stereo not drawn) [Compound 1-52, 2-[4-Amino-3-cyano-5-(5-methyl-1-phenyl-1H-pyrazole-4-carbonyl)-thiophen-2-ylamino]-4-methyl-pentanoic acid methyl ester], the IC50 in assay [1] (setting [2]) is below 10 µM; at PDE4D (setting [3]), above 10 µM.

On to `Nc1nc(NC2CCCC2)sc1C(=O)c1ccsc1` [Compound 2-102, (4-Amino-2-cyclopentylamino-thiazol-5-yl)-thiophen-3-yl-methanone], for which the IC50 (in assay [1] (setting [8]); at PDE4D (setting [9])) was below 10 µM throughout.

With `N#Cc1c(Nc2ccc(OC(F)F)cc2)sc(C(=O)c2ccc(OC(F)F)cc2)c1N` [Compound 1-165, 4-Amino-5-(4-difluoro-methoxy-benzoyl)-2-(4-difluoromethoxy-phenylamino)-thiophene-3-carbonitrile], the IC50 (in assay [1] (setting [2]); on PDE4D (setting [3])) was below 10 µM each time.

As for `COc1ccc(OC)c(C(=O)c2sc(NCCN3CCCCC3)c(C#N)c2N)c1` [Compound 1-39, 4-Amino-5-(2,5-dimethoxy-benzoyl)-2-(2-piperidin-1-yl-ethylamino)-thiophene-3-carbonitrile], the IC50 (in assay [1] (setting [2]); at PDE4D (setting [3])) was above 10 µM throughout.

Take `Nc1nc(Nc2ccc(Oc3ccccc3)cc2)sc1C(=O)c1cccc(C(F)(F)F)c1` [Compound 2-57, [4-Amino-2-(4-phenoxy-phenylamino)-thiazol-5-yl]-(3-trifluoromethyl-phenyl)-methanone]: the figures for the IC50 (in assay [1] (setting [8]); on PDE4D (setting [9])) were below 10 µM and above 10 µM, respectively.

Turning to `Cc1ccc(C(=O)c2sc(NC3CCOC3=O)c(C#N)c2N)c(C)c1` (stereo not drawn) [Compound 1-91, 4-Amino-5-(2,4-dimethyl-benzoyl)-2-(2-oxo-tetrahydro-furan-3-ylamino)-thiophene-3-carbonitrile], the IC50 in assay [1] (setting [2]) was below 10 µM; on PDE4D (setting [3]), above 10 µM.

With `COc1ccc(Nc2nc(N)c(C(=O)C3CCCC3)s2)cc1` [Compound 2-99, [4-Amino-2-(4-methoxy-phenylamino)-thiazol-5-yl]-cyclopentyl-methanone], the IC50 (in assay [1] (setting [8]); on PDE4D (setting [9])) was above 10 µM throughout.

Consider `Cc1cc(NC(=O)c2sc(Nc3ccccc3)c(C#N)c2N)no1` [Compound 1-26, 3-Amino-4-cyano-5-phenylamino-thiophene-2-carboxylic acid (5-methyl-isoxazol-3-yl)-amide], for which the IC50 (in assay [1] (setting [2]); at PDE4D (setting [3])) was below 10 µM throughout.

As to `COc1ccc(CNc2sc(C(=O)c3ccccn3)c(N)c2C#N)cc1OC` [Compound 1-149, 4-Amino-2-(3,4-dimethoxy-benzylamino)-5-(pyridine-2-carbonyl)-thiophene-3-carbonitrile], the IC50 (in assay [1] (setting [2]); at PDE4D (setting [3])) was below 10 µM each time.

Regarding `COC(=O)C(CCSC)Nc1sc(C(=O)c2c(-c3ccccc3)noc2C)c(N)c1C#N` (stereo not drawn) [Compound 1-131, 2-[4-Amino-3-cyano-5-(5-methyl-3-phenyl-isoxazole-4-carbonyl)-thiophen-2-ylamino]-4-methylsulfanyl-butyric acid methyl ester], the results for the IC50 (in assay [1] (setting [2]); at PDE4D (setting [3])) were below 10 µM and above 10 µM, respectively.

With `Nc1nc(Nc2cccnc2)sc1C(=O)c1ccccc1` [Compound 2-71, [4-Amino-2-(pyridin-3-ylamino)-thiazol-5-yl]-phenyl-methanone], the IC50 (in assay [1] (setting [8]); at PDE4D (setting [9])) was below 10 µM in each case.

As to `Cc1c(C(=O)c2sc(NCCN3CCCCC3)c(C#N)c2N)cnn1-c1ccccc1` [Compound 1-51, 4-Amino-5-(5-methyl-1-phenyl-1H-pyrazole-4-carbonyl)-2-(2-piperidin-1-yl-ethylamino)-thiophene-3-carbonitrile], the IC50 in assay [1] (setting [2]) was below 10 µM; on PDE4D (setting [3]), above 10 µM.

Turning to `CCOC(=O)c1cc(C(=O)c2sc(Nc3cccc(SC)c3)c(C#N)c2N)on1` [Compound 1-176, 5-[3-Amino-4-cyano-5-(3-methylsulfanyl-phenylamino)-thiophene-2-carbonyl]-isoxazole-3-carboxylic acid ethyl ester], the IC50 (in assay [1] (setting [2]); at PDE4D (setting [3])) was below 10 µM in each case.

Turning to `Cc1ccc2cccnc2c1NS(=O)(=O)c1cc(S(=O)(=O)c2ccccc2)cs1` [Compound 3-39, 4-Benzenesulfonyl-thiophene-2-sulfonic acid (7-methyl-quinolin-8-yl)-amide], the IC50 (in assay [1] (setting [4]); at PDE4D (setting [5])) was above 10 µM throughout.

Take `CC(C)Nc1nc(N)c(C(=O)c2cc(-c3ccc(Cl)cc3)no2)s1` [Compound 2-13, (4-Amino-2-isopropylamino-thiazol-5-yl)-[3-(4-chloro-phenyl)-isoxazol-5-yl]-methanone]: the IC50 (in assay [1] (setting [6]); at PDE4D (setting [7])) was below 10 µM in each case.

Consider `COc1ccc(C(=O)c2sc(Nc3ccccc3F)c(C#N)c2N)c(OC)c1` [Compound 1-100, 4-Amino-5-(2,4-dimethoxy-benzoyl)-2-(2-fluoro-phenylamino)-thiophene-3-carbonitrile], for which the IC50 (in assay [1] (setting [2]); at PDE4D (setting [3])) was below 10 µM throughout.

`Nc1nc(NC2CCCC2)sc1C(=O)c1ccc(-c2ccccc2)s1` [Compound 2-18, (4-Amino-2-cyclopentylamino-thiazol-5-yl)-(5-phenyl-thiophen-2-yl)-methanone]: the IC50 (in assay [1] (setting [6]); at PDE4D (setting [7])) was below 10 µM in each case.

As for `Cc1ccc2cccnc2c1NS(=O)(=O)c1ccc(Cl)s1` [Compound 3-3, 5-Chloro-thiophene-2-sulfonic acid (7-methyl-quinolin-8-yl)-amide], the IC50 (in assay [1] (setting [4]); at PDE4D (setting [5])) was above 10 µM throughout.

The values above are taken from patent US7585859B2, “PDE4B inhibitors and uses therefor” (Plexxikon, Inc., priority 2004, dated 2009).
